In a melting point compilation (Tetko et al.; mined from patent text by program, amines drawn as free bases though some values may be those of a salt):

melting point | SMILES
150 to 152 °C | COC(=O)C1=C(C)NC(O)=C(C(=O)OC)C1c1cccc([N+](=O)[O-])c1 (stereo not drawn)
79 to 80 °C | COCc1ccc(O)cc1
209 to 211 °C | CC(C)(C)c1nc(/C=C/c2cn(-c3ccccc3)nc2O)cs1
99 to 100 °C | CCCC(C)(CO)c1cc(Cl)nnc1Cl (stereo not drawn)
255 °C | NS(=O)(=O)c1ccc(-c2noc(-c3cnn4c(C(F)(F)F)cc(-c5ccc(C(F)(F)F)c(OCC(F)(F)F)c5)nc34)n2)s1
122 to 125 °C | CC(=O)NCCC(=O)NCCO
162 to 165 °C | Cc1cc(NCCNC(=O)CCc2cc(C(C)(C)C)c(O)c(C(C)(C)C)c2)nc(Cl)c1C#N
121 °C | CCCCCCCCCCCCCCCCCCNC(=O)NCCSc1ccc(O)cc1
127 to 132 °C | COc1ccc(N2CC(O)c3cc(Cl)sc3S2(=O)=O)cc1 (stereo not drawn)
214 to 215 °C | Clc1nc2c([nH]1)CCCCC2
188 to 190 °C | COc1cc2c(c(OC(C)=O)c1)C1CCC3(C)C(=O)C(Br)CC3C1CC2 (stereo not drawn)
127 to 128 °C | Cc1ccc(-c2ccccc2CC(N)=NO)cc1
153 °C | CNC(=S)C1(c2ccccn2)CCCCS1 (stereo not drawn)
101 to 102 °C | O=C1C2CCCC2=Nc2ccccc2N1CCc1ccccc1 (stereo not drawn)
108 to 111 °C | COc1cc(F)c(C2NCCc3ccsc32)cc1OC (stereo not drawn)
79 to 95 °C | CNC(=O)CC1CSC2=C(C(=O)OC(C)C)CCN21 (stereo not drawn)
86 to 88 °C | Cc1onc(C(=O)c2ccccc2)c1NC(=O)CCl
140 °C | O=C1c2cccc3cc4ccccc4c(c23)C(=O)N1CCCNCCCNCCCN1C(=O)c2cccc3cc4ccccc4c(c23)C1=O
152 to 155 °C | CC(C)(C#N)NC(=O)Sc1ccccc1
95 °C | OCC1CN(Cc2ccccc2)CCc2c1[nH]c1ccccc21 (stereo not drawn)

melting point | SMILES
60 to 61 °C | CN(C)NC(=O)NCCCCC1CCSS1 (stereo not drawn)
106 to 108 °C | CCc1ccc(SC(=NNc2ccc(OC)cc2)C(C)=O)cc1
124 to 127 °C | O=C(Oc1cc(O)ccn1)c1ccccc1
58 to 86 °C | O=C1NCCN1Cc1cccnc1
81 to 83 °C | CCN(CCO)Cc1cc(Nc2nc(Nc3ccc4c(c3OC)CCC(N3CCOCC3)CC4)ncc2Cl)ccc1F (stereo not drawn)
101 to 103 °C | CC1(C)C2C(=O)OC(C(Br)(Br)Br)C21 (stereo not drawn)
45.8 °C | C=Cc1ccc(C=CC#N)cc1
160 °C | COc1ccc(S(=O)(=O)N(CCn2ccnc2)c2ccc(Cl)cc2Cc2c(F)cccc2F)cc1OC
145 to 146 °C | Brc1cc(Br)c(-c2ccccc2)nn1
88 °C | CC(C)(O)[C@H](Cc1ccccc1)NC(=O)C(Cl)(Cl)Cl
128 to 130 °C | O=C(c1ccco1)N1CCN(c2cc(-c3ccccc3)c3c(n2)CCCC3)CC1
93.5 to 100 °C | COc1ccc(NC(=O)Nc2nc3nc(NCCCN4CCN(C)CC4)ncc3cc2-c2c(Cl)cccc2Cl)cc1
128 °C | O=C1Cc2c(ccc3c2OC(CNCc2ccccc2)CC3)N1 (stereo not drawn)
122 to 126 °C | COCCC1(C(=O)N[C@@H](Cc2ccc(N3C(=O)c4cccc(C#N)c4C3=O)cc2)C(=O)OC)CCCC1
38 °C | CCC=C(CCC)C(=O)O
234 to 235 °C | Cc1cc(-c2nc3cccnn3c2-c2ccnc(NC(=O)c3ccccn3)c2)ccc1F
162 to 166 °C | Nc1nc(OCc2ccccc2)c2ncn(CCC3COP(=O)(OCc4ccccc4)OC3)c2n1 (stereo not drawn)
195 to 196 °C | CC(C)S(=O)(=O)c1cc(OCCc2ccccn2)c2[nH]nc(Nc3cnccn3)c2c1
159 to 161 °C | Cc1noc(C)c1-c1cn(Cc2ccccc2)c(=O)c2ccncc12
42 to 43 °C | c1ccc(OCC2CCNCC2)cc1

SMILES | melting point
CC1CC2=CC(=O)CCC2C2C(Cl)CC3(C)C(=O)CCC3C12 (stereo not drawn) | 215 °C
COc1ccc2c(c1)C13CCCCC1(CC2)CCN3C (stereo not drawn) | 100 to 102 °C
COc1ccc(C2CNCc3c2ccc(OC)c3C)cc1OC (stereo not drawn) | 128 to 129 °C
